{"source": "patent US11279734B2", "about": "“Solution-phase affinity selection of inhibitors from combinatorial peptide libraries” (Massachusetts Institute of Technology, priority 2017, dated 2022)", "key": {"MDM2 [1]": {"target": "T1, MDM2 (Homo sapiens, UniProt Q00987)", "assay": "Kd MDM2 (nM)", "description": "Table printed on a drawing sheet, Figure 2B\nHead of the field: Kd MDM2 (nM)\nThe patent's description of the figure: FIGS. 2A-2F: Rapid combinatorial mapping of pDI (6) key binding residues and affinity selection of potent non-canonical inhibitors of ^25-109MDM2 and C-CA proteins. FIG. 2A) Combinatorial mapping of pDI (6) binding hotspots, library design. Represented are 6's randomized residues using L-configured (circles) natural amino acids. FIG. 2B) Affinity selected sequences from Library 1 and 2 at different stringencies (sequences 1 to 9) were validated after resynthesis and biotinylation or acetylation (peptides 1a to 6a and 7b to 9b) using bio-layer interferometry (BLI). In bold italic are represented randomized residues, and those that were varied compared to sequence 6. FIG. 2C) Expanding linear inhibitor hotspots to non-canonical amino acids. Library 3 was designed around 6 while Library 4 was designed around CAI (37) inhibitor. Depicted are randomized residues using non-canonical amino acids (abbreviations for each monomer are indicated in bold). FIG. 2D) Affinity selection from Library 3 at higher stringency using 6 as a soluble competitive inhibitor. […]\nFirst copying reader's note: Randomized residues are printed in italic (bold or grey); this styling is not kept in the grid.\nWhere the first naming reader finds the target: head: Kd MDM2 (nM)"}, "SUMO-25-109 MDM2 [2]": {"target": "T2, SUMO-25-109 MDM2 (Homo sapiens, UniProt Q00987)", "assay": "BLI in solution competition assay", "assay_type": "binding", "settings": "for binding to MDM2 (in words): acetylated peptides or mini-proteins, BLI", "description": "Calibration Curve: Streptavidin (SA) sensors were soaked in competition buffer (PBS supplemented with 0.05% Tween-20, and L-arginine pH 7.5) for 10 minutes at 30° C. […] The thus obtained biotinylated 63a (0.5 μM in competition buffer) was loaded on the SA sensor for 10 minutes at 30° C. and 1000 rpm. […] A calibration curve corresponding to binding response at equilibrium (in nm)=f(free [MDM2] in nM) was generated using GraphPad Prism 6 software using non-linear regression analysis (see FIG. 5).\nMeanwhile, SA sensors were soaked in competition buffer for 10 minutes at 30° C. […] Based on the binding (nm) values, the concentration of “free” MDM2 was interpolated for each sample using the calibration curve. […] The following equation was used to generate fitted curves."}, "SJSA-1 cells [3]": {"system": "SJSA-1 cells", "assay": "Western blot analysis of p53 activation (MDM2, p21)", "assay_type": "cell-based", "settings": "10 μM, 12 hours", "description": "SJSA-1 and K-562 cells were seeded in 6 well plates at a cell density of 350*10^3 cells/well in RPMI-1640 media supplemented with 10% serum and 1% Pen-Strep and incubated overnight at 37° C. and 5% CO2. The next day cells were treated with peptides and controls at 10 μM for 12 hours. Then cells were harvested and their pellets washed (2×) with PBS and lysed in 100 μL of RIPA buffer supplemented with Roche protease inhibitor cocktail on ice for 30 minutes. The lysates were clarified by brief centrifugation at 4° C. and total protein concentration was determined using the Bio-Rad DC protein assay. Aliquots of the cell lysates were run on 12% Tris-Glycine polyacrylamide gels (Invitrogen). After transfer using Trans-Blot Turbo Transfer system (Biorad), the membrane was blocked at room temperature for 2 hours with LI-COR blocking buffer. The membrane was cut in three and each part was incubated respectively with anti-MDM2 (mouse, SMP14: sc-965, Santa Cruz Biotechnology), anti-p21 (mouse, F-5: sc-6246, Santa Cruz Biotechnology) and anti-GAPDH (rabbit, GAPDH (D16H11) XP®, Cell Signaling Technology) antibodies in TBST overnight at 4° C. The membranes were washed and incubated with the appropriate secondary antibodies in TBST for 1 h at room temperature, washed again, then imaged with the LI-COR Odyssey infrared imaging system (see FIGS. 103-105)."}, "MCF-7 cells": {"system": "MCF-7 cells", "assay": "Cell viability assay (MTS)", "assay_type": "cell-based", "settings": "MCF-7 cells (MDM2 and MDMX overexpressing), 72 hours", "description": "(§1) SJSA-1, K-562 and MCF-7 cells were plated in 96-well plates in RPMI-1640 containing 10% FBS and 1% Pen-Strep and the next day were treated with the indicated concentrations of peptide or vehicle control. Peptide stocks were diluted into RPMI-1640 containing 10% FBS and 1% Pen-Strep to achieve 2× working individual stock solutions that were thoroughly mixed then diluted into the treatment wells. Cell viability was assayed after 72 hours by addition of CellTiter 96® AQueous One Solution Cell Proliferation reagent (MTS). All assays were performed in triplicate, and data was normalized to vehicle treated control and analyzed using Prism software (GraphPad Software)."}, "K-562 cells": {"system": "K-562 cells", "assay": "Cell viability assay (MTS)", "assay_type": "cell-based", "settings": "K-562 p53-null cells, 72 hours", "description": "as §1"}, "SJSA-1 cells [4]": {"system": "SJSA-1 cells", "assay": "Cell viability assay (MTS)", "assay_type": "cell-based", "settings": "72 hours", "description": "as §1"}, "MDM2 [5]": {"target": "T1, MDM2", "assay": "HPSEC affinity selection under increasing stringency (EIC peak area)", "assay_type": "binding", "settings": "usual stringency vs 100 μM of 6 and MDM2 lowered to […]", "description": "SEC conditions: unless stated otherwise, high performance size exclusion column BIO-SEC-3, 7.8×150 mm, 3 μm particle size and 100 Å pore size was used. 100 μL of binding mixture containing peptides or peptide libraries and protein target was isocratically eluted in buffered mobile phase (25 mM Tris, 50 mM NaCl, pH 7.5, with or without L-arginine supplementation) at 1 mL/min flow rate for 15 minutes (typical backpressure ˜80-90 bars for a brand new column). Generally, mobile phase is also used as the binding buffer for affinity selection experiments, and systematically before each experiment a blank injection is performed consisting in a protein only injection. During affinity selection experiments the breakthrough fraction (protein fraction) was monitored by UV and collected. The latter contained the protein-binder complexes which were dissociated using 0.2% formic acid before characterization using LC-MS or LC-MS/MS analysis."}, "SUMO-25-109 MDM2 [6]": {"target": "T2, SUMO-25-109 MDM2", "assay_type": "binding", "settings": "biotinylated peptides, BLI"}}, "note": "Entries after “also recorded” stand apart in the source; their conditions may differ. Like-named read-outs stand apart in the source and are kept apart here. Where no end group is shown, it is not given here. [ ]: non-standard residue; d: D form. Cha = N[C@@H](CC1CCCCC1)C(=O)O", "data": [{"substance": "Ac-LTYEHYWAQLTSK-NH2 [SEQ ID NO: 67 | 8b]", "values": [{"measurement": "Kd", "setting": "MDM2 [1]", "result": 2700, "unit": "nM"}]}, {"substance": "Bio-(PEG)4- Leu Thr F2f Glu His Tyr Hexa Ala Gln Cba Thr Ser Lys -NH2 [(SEQ ID NO: 11) | 10a]", "values": [{"measurement": "Kd", "setting": "MDMX", "result": 26, "unit": "nM"}]}, {"substance": "Bio-(PEG)4- Leu Thr F2f Glu His Tyr Trp Ala Gln Cba Thr Ser Lys -NH2 [(SEQ ID NO: 12) | 11a]", "values": [{"measurement": "Kd", "setting": "MDMX", "result": 33, "unit": "nM"}]}, {"substance": "Bio-(PEG)4- Leu Thr Phe Glu His Tyr Trp Ala Gln Leu Thr Ser Lys -NH2 [(SEQ ID NO: 8) | 6a]", "values": [{"measurement": "Kd", "setting": "MDMX", "result": 83, "unit": "nM"}]}, {"substance": "KAWYAN(CF3f)EKLLR [peptide 53]", "values": [{"measurement": "affinity for MDM2 lower than 54b", "setting": "SUMO-25-109 MDM2 [2]; label free approach, relative to 54b", "result": "about 20 fold"}]}, {"substance": "KAWYAN[Cha]EKLLR [peptide 45]", "values": [{"measurement": "Kd", "setting": "SUMO-25-109 MDM2 [2]; in solution competition, acetylated peptide or mini-protein, fitted titration curve", "result": 6.1, "unit": "nM"}]}, {"substance": "LT(F2f)(Dap)EYWAQ(Cba)(Dap)SAA [peptide 11b-S1]", "values": [{"measurement": "upregulation of MDM2 and p21", "setting": "SJSA-1 cells [3]", "result": "upregulated MDM2 and P21 markers; also recorded: upregulated p53 gene products p21 and MDM2"}, {"measurement": "cell viability", "setting": "MCF-7 cells", "result": "lowered viability for MCF-7 cells"}, {"measurement": "cell viability", "setting": "K-562 cells", "result": "did not significantly lower K-562 viability"}, {"measurement": "cell killing / viability", "setting": "SJSA-1 cells [4]", "result": "cell-killing properties; also recorded: killed SJSA-1 cells"}, {"measurement": "binding to MDM2 (in words)", "setting": "SUMO-25-109 MDM2 [2]; in solution competition", "result": "low nanomolar affinity"}]}, {"substance": "LT(F2f)(R8)EFWAQ(Cba)(S5)SAA [peptide 11b-M]", "values": [{"measurement": "upregulation of MDM2 and p21", "setting": "SJSA-1 cells [3]", "result": "upregulated p21 and MDM2"}, {"measurement": "cell killing / viability", "setting": "SJSA-1 cells [4]", "result": "cell-killing properties"}, {"measurement": "binding to MDM2 (in words)", "setting": "SUMO-25-109 MDM2 [2]; in solution competition", "result": "low nanomolar affinity"}]}, {"substance": "LT(F2f)(R8)EY(Hexa)AQ(Cba)(S5)SAA [peptide 10b-M]", "values": [{"measurement": "upregulation of MDM2 and p21", "setting": "SJSA-1 cells [3]", "result": "upregulated MDM2 and P21 markers"}, {"measurement": "cell viability", "setting": "MCF-7 cells", "result": "lowered viability for MCF-7 cells"}, {"measurement": "cell viability", "setting": "K-562 cells", "result": "did not significantly lower K-562 viability"}, {"measurement": "cell killing / viability", "setting": "SJSA-1 cells [4]", "result": "cell-killing properties; also recorded: killed SJSA-1 cells"}, {"measurement": "binding to MDM2 (in words)", "setting": "SUMO-25-109 MDM2 [2]; in solution competition", "result": "low nanomolar affinity"}]}, {"substance": "LT(F2f)(R8)EY(Napa)AE(Cba)KSAA [peptide 27b-M]", "values": [{"measurement": "upregulation of MDM2 and p21", "setting": "SJSA-1 cells [3]", "result": "upregulated p21 and MDM2"}, {"measurement": "cell viability", "setting": "MCF-7 cells", "result": "lowered viability for MCF-7 cells"}, {"measurement": "cell viability", "setting": "K-562 cells", "result": "did not significantly lower K-562 viability"}, {"measurement": "cell killing / viability", "setting": "SJSA-1 cells [4]", "result": "cell-killing properties"}, {"measurement": "binding to MDM2 (in words)", "setting": "SUMO-25-109 MDM2 [2]; in solution competition", "result": "low nanomolar affinity"}]}, {"substance": "LT(F2f)EHY(Hexa)AQ(Cba)TSK [peptide 10]", "values": [{"measurement": "EIC peak area variation from condition (A) to (D)", "setting": "MDM2 [5]", "result": 4.5, "unit": "fold"}]}, {"substance": "LT(F2f)EHY(Hexa)AQ(Cba)TSK [peptide 10a]", "values": [{"measurement": "binding to MDM2 (in words)", "setting": "SUMO-25-109 MDM2 [6]", "result": "high affinity binder"}]}, {"substance": "LT(F2f)EHY(Hexa)AQ(Cba)TSK [peptide 10b]", "values": [{"measurement": "binding to MDM2 (in words)", "setting": "SUMO-25-109 MDM2 [2]; in solution competition", "result": "low nanomolar affinity to MDM2"}]}, {"substance": "LT(F2f)EHYWAQ(Cba)TSK [peptide 11]", "values": [{"measurement": "EIC peak area variation from condition (A) to (D)", "setting": "MDM2 [5]", "result": 30, "unit": "fold"}]}, {"substance": "LT(F2f)EHYWAQ(Cba)TSK [peptide 11b]", "values": [{"measurement": "binding to MDM2 (in words)", "setting": "SUMO-25-109 MDM2 [2]; in solution competition", "result": "low nanomolar affinity"}]}, {"substance": "LT(F2f)KEY(Hexa)AQ(Cba)(K)SAA [peptide 10b-S4]", "values": [{"measurement": "binding to MDM2 (in words)", "setting": "SUMO-25-109 MDM2 [2]; in solution competition", "result": "weakened or abrogated binding"}]}, {"substance": "LT(F2f)KEYWAE(Cba)KSAA [peptide 11b-S4]", "values": [{"measurement": "binding to MDM2 (in words)", "setting": "SUMO-25-109 MDM2 [2]; in solution competition", "result": "weakened or abrogated binding"}]}, {"substance": "LTFCys(ar)HYWAQFCys(ar)SK [peptide 61a]", "values": [{"measurement": "binding to MDM2 (in words)", "setting": "SUMO-25-109 MDM2 [6]", "result": "substantially weaker binding compared to 60a"}]}, {"substance": "LTFEHYWAQFTSK [peptide 5a]", "values": [{"measurement": "binding to MDM2 (in words)", "setting": "SUMO-25-109 MDM2 [6]", "result": "nanomolar binder"}]}]}
